This passage reports EC50 results from patent publication US20150087673A1, “METHODS FOR USING AND BIOMARKERS FOR AMPK-ACTIVATING COMPOUNDS” (RIGEL PHARMACEUTICALS, INC., priority 2013, published 2015).

The test system of the experiment is AMPK. Kind of experiment: AMPK activation assay (enzyme-linked immunosorbent assay). It counts as cell-based. A digest of the protocol: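 Compounds were tested for their capacity to activate the kinase using standard, commercially available kit reagents and procedures.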

pEC50: −log10 of the molar value.

By pEC50 is commonly meant −log10 of the EC50, conventionally taken in molar units. The low end stands for a large EC50, the high end for a small EC50. `COc1ccc(C(=O)C2CCN(C(=O)c3ccc(C(=O)Nc4ccc(S(=O)(=O)c5ccc(F)cc5)nc4)cn3)CC2)cc1` [Compound 467, N-(6-(4-fluorophenylsulfonyl)pyridin-3-yl)-6-(4-(4-methoxybenzoyl)piperidine-1-carbonyl)nicotinamide] had a pEC50 of 5.30 to 6.00.

On to `O=C(NCc1ccccc1)c1ccc(C(=O)N2CCN(Cc3ccc(F)cc3)CC2)cn1` [Compound 115, N-benzyl-5-(4-(4-fluorobenzyl)piperazine-1-carbonyl)picolinamide], for which the pEC50 is 5.00 to 5.30.

With `COc1ccc(CN2CCC(NC(=O)c3ccc(C(=O)N4CCC(Oc5ccc(S(C)(=O)=O)cc5)CC4)cn3)CC2)cc1` [Compound 202, N-(1-(4-methoxybenzyl)piperidin-4-yl)-5-(4-(4-(methylsulfonyl)phenoxy)piperidine-1-carbonyl)picolinamide], the pEC50 was above 6.30.

Take `O=C(Nc1cccc(Oc2ccccc2)c1)c1ccc(C(=O)N2CCN(Cc3ccc(F)cc3)CC2)cn1` [Compound 21, 5-(4-(4-fluorobenzyl)piperazine-1-carbonyl)-N-(3-phenoxyphenyl)picolinamide]: the pEC50 was above 6.30.

Take `N#Cc1ccc(OC2CCN(C(=O)c3ccc(C(=O)NC4CCN(Cc5ccc(OC(F)(F)F)cc5)CC4)cn3)CC2)cc1` [Compound 338, 6-(4-(4-cyanophenoxy)piperidine-1-carbonyl)-N-(1-(4-(trifluoromethoxy)benzyl)piperidin-4-yl)nicotinamide]: the pEC50 was above 6.30.

Turning to `O=C(N[C@@H]1CCNC[C@@H]1F)c1ccc(C(=O)N2CCN(Cc3ccc(F)cc3)CC2)cn1` (relative stereo) [Compound 102, 5-(4-(4-fluorobenzyl)piperazine-1-carbonyl)-N-(cis-3-fluoropiperidin-4-yl)picolinamide], the pEC50 is 5.00 to 5.30.

Take `COc1ccc(C(=O)C2CCN(C(=O)c3ccc(C(=O)NC4CCN(Cc5ccc([N+](=O)[O-])cc5)CC4)cn3)CC2)cc1` [Compound 373, 6-(4-(4-methoxybenzoyl)piperidine-1-carbonyl)-N-(1-(4-nitrobenzyl)piperidin-4-yl)nicotinamide]: the pEC50 was above 6.30.

As to `N#Cc1ccc(CN2CCC(NC(=O)c3ccc(C(=O)N4CCC(Oc5ccc(F)c(F)c5)CC4)cn3)CC2)cc1` [Compound 158, N-(1-(4-cyanobenzyl)piperidin-4-yl)-5-(4-(3,4-difluorophenoxy)piperidine-1-carbonyl)picolinamide], the pEC50 was above 6.30.

Consider `COc1ccc(C(=O)C2CCN(C(=O)c3ccc(C(=O)NC4CCN(Cc5cccc(OC(F)(F)F)c5)CC4)cn3)CC2)cc1` [Compound 424, 6-(4-(4-methoxybenzoyl)piperidine-1-carbonyl)-N-(1-(3-(trifluoromethoxy)benzyl)piperidin-4-yl)nicotinamide], for which the pEC50 is above 6.30.

Compound `NC(=O)c1ccc(CN2CCC(NC(=O)c3ccc(C(=O)N4CCN(Cc5ccc(F)cc5)CC4)cn3)CC2)cc1` [Compound 201, N-(1-(4-carbamoylbenzyl)piperidin-4-yl)-5-(4-(4-fluorobenzyl)piperazine-1-carbonyl)picolinamide] showed a pEC50 of 6.00 to 6.30.

For `N#Cc1ccc(CN2CCC3(CCN(C(=O)c4ccc(C(=O)N5CCN(Cc6ccc(F)cc6)CC5)cn4)CC3)C2)cc1` [Compound 15, 4-((8-(5-(4-(4-fluorobenzyl)piperazine-1-carbonyl)picolinoyl)-2,8-diazaspiro[4.5]decan-2-yl)methyl)benzonitrile], the pEC50 is 5.30 to 6.00.

The compound `N#Cc1ccc(CN2CCC(NC(=O)c3ccc(N4CCC(Oc5ccc(C(F)(F)F)cc5)CC4)nn3)CC2)cc1` [Compound 361, N-(1-(4-cyanobenzyl)piperidin-4-yl)-6-(4-(4-(trifluoromethyl)phenoxy)piperidin-1-yl)pyridazine-3-carboxamide] had a pEC50 above 6.30.

As for `O=C(c1ccc(C(=O)N2CCN(CCc3ccccc3)CC2)nc1)N1CCN(Cc2ccc(F)cc2)CC1` [Compound 88, (4-(4-fluorobenzyl)piperazin-1-yl)(6-(4-phenethylpiperazine-1-carbonyl)pyridin-3-yl)methanone], the pEC50 is 5.30 to 6.00.

As for `CC(C)(c1ccc(C#N)cc1)N1CCC(NC(=O)c2ccc(C(=O)N3CCN(Cc4ccc(F)cc4)CC3)cn2)CC1` [Compound 111, N-(1-(2-(4-cyanophenyl)propan-2-yl)piperidin-4-yl)-5-(4-(4-fluorobenzyl)piperazine-1-carbonyl)picolinamide], the pEC50 was 5.30 to 6.00.

Regarding `CN1CCN(c2ccc(C(=O)C3CCN(C(=O)c4ccc(C(=O)NC5CCN(Cc6ccc(C#N)cc6)CC5)cn4)CC3)cc2)CC1` [Compound 243, N-(1-(4-cyanobenzyl)piperidin-4-yl)-6-(4-(4-(4-methylpiperazin-1-yl)benzoyl)piperidine-1-carbonyl)nicotinamide], the pEC50 is above 6.30.

Compound `N#Cc1ccc(Cn2ccc(NC(=O)c3ccc(C(=O)N4CCN(Cc5ccc(F)cc5)CC4)cn3)n2)cc1` [Compound 9, N-(1-(4-cyanobenzyl)-1H-pyrazol-3-yl)-5-(4-(4-fluorobenzyl)piperazine-1-carbonyl)picolinamide] had a pEC50 above 6.30.

In turn, `COc1ccc(C(=O)C2CCN(C(=O)c3ccc(C(=O)N[C@@H]4CCN(Cc5ccc(C#N)cc5)C[C@H]4F)cn3)CC2)cc1` [Compound 452, N-((3R,4R)-1-(4-cyanobenzyl)-3-fluoropiperidin-4-yl)-6-(4-(4-methoxybenzoyl)piperidine-1-carbonyl)nicotinamide] gave a pEC50 above 6.30.

As for `N#Cc1ccc(O[C@H]2CC[C@@H](NC(=O)c3ccc(C(=O)N4CCC(Oc5ccc(C(F)(F)F)cc5)CC4)cn3)CC2)cc1` [Compound 190, N-((cis)-4-(4-cyanophenoxy)cyclohexyl)-5-(4-(4-(trifluoromethyl)phenoxy)piperidine-1-carbonyl)picolinamide], the negative logarithm of the EC50 (pEC50) is above 6.30.

Compound `N#Cc1ccc(CN2CCC(NC(=O)c3ccc(C(=O)Nc4ccn(Cc5ccc(C#N)cc5)n4)cn3)CC2)cc1` [Compound 38, N^5-(1-(4-cyanobenzyl)-1H-pyrazol-3-yl)-N^2-(1-(4-cyanobenzyl)piperidin-4-yl)pyridine-2,5-dicarboxamide] gave a pEC50 of 6.00 to 6.30.

For `N#Cc1ccc(CN2CCC(NC(=O)c3ccc(C(=O)N4CCN(c5ccc(C(F)(F)F)cc5)CC4)cn3)CC2)cc1` [Compound 339, N-(1-(4-cyanobenzyl)piperidin-4-yl)-5-(4-(4-(trifluoromethyl)phenyl)piperazine-1-carbonyl)picolinamide], the pEC50 was above 6.30.

`CS(=O)(=O)c1ccc(OC2CCN(C(=O)c3ccc(C(=O)NC4CCC(Oc5ccc(C#N)cc5)CC4)cn3)CC2)cc1` (stereo not shown) [Compound 398, N-(4-(4-cyanophenoxy)cyclohexyl)-6-(4-(4-(methylsulfonyl)phenoxy)piperidine-1-carbonyl)nicotinamide] had a pEC50 above 6.30.

The compound `CC(=O)c1ccc(OC2CCN(C(=O)c3ccc(C(=O)NC4CCN(Cc5ccc(C#N)cc5)CC4)nc3)CC2)cc1` [Compound 358, 5-(4-(4-acetylphenoxy)piperidine-1-carbonyl)-N-(1-(4-cyanobenzyl)piperidin-4-yl)picolinamide] had a pEC50 above 6.30.

In turn, `COc1ccc(CN2CCC(NC(=O)c3ccc(C(=O)N4CCC(C(=O)c5ccc(F)cc5F)CC4)nc3)CC2)cc1` [Compound 347, 6-(4-(2,4-difluorobenzoyl)piperidine-1-carbonyl)-N-(1-(4-methoxybenzyl)piperidin-4-yl)nicotinamide] gave a pEC50 above 6.30.

With `CCOC(=O)C(c1ccccc1)N1CCC(NC(=O)c2ccc(C(=O)N3CCN(Cc4ccc(F)cc4)CC3)cn2)CC1` (stereo not shown) [Compound 98, ethyl 2-(4-(5-(4-(4-fluorobenzyl)piperazine-1-carbonyl)picolinamido)piperidin-1-yl)-2-phenylacetate], the pEC50 is 5.30 to 6.00.

`O=C(NC1CCN(Cc2ccc(F)cc2)CC1)c1ccc(C(=O)N2CCC(C(=O)c3ccc(F)cc3)CC2)cn1` [Compound 181, 5-(4-(4-fluorobenzoyl)piperidine-1-carbonyl)-N-(1-(4-fluorobenzyl)piperidin-4-yl)picolinamide] gave a pEC50 above 6.30.

As for `COc1ccc(C(=O)C2CCN(C(=O)c3ccc(C(=O)N[C@@H]4CCN(Cc5ccc(OC(C)C)cc5)C[C@H]4F)cn3)CC2)cc1` (relative stereo) [Compound 353, N-((trans)-3-fluoro-1-(4-isopropoxybenzyl)piperidin-4-yl)-6-(4-(4-methoxybenzoyl)piperidine-1-carbonyl)nicotinamide], the pEC50 was above 6.30.

In turn, `O=C(NC1CCN(Cc2ccc(N3CCCC3)cc2)CC1)c1ccc(C(=O)N2CCC(Oc3ccc(F)cc3)CC2)cn1` [Compound 196, 5-(4-(4-fluorophenoxy)piperidine-1-carbonyl)-N-(1-(4-(pyrrolidin-1-yl)benzyl)piperidin-4-yl)picolinamide] showed a pEC50 above 6.30.

As for `COc1ccc(N2CCC(NC(=O)c3ccc(C(=O)N4CCC(Oc5ccc(C#N)cc5)CC4)nc3)CC2)cc1` [Compound 423, 6-(4-(4-cyanophenoxy)piperidine-1-carbonyl)-N-(1-(4-methoxyphenyl)piperidin-4-yl)nicotinamide], the pEC50 is above 6.30.

For the compound `N#Cc1ccc(O[C@H]2CC[C@@H](NC(=O)c3ccc(C(=O)N4CCN(Cc5ccc(F)cc5)CC4)cn3)CC2)cc1` [Compound 150, N-(cis-4-(4-cyanophenoxy)cyclohexyl)-5-(4-(4-fluorobenzyl)piperazine-1-carbonyl)picolinamide], the pEC50 was above 6.30.

For the compound `N#Cc1ccc(O[C@H]2CC[C@@H](NC(=O)c3ccc(C(=O)N4CCC(C(=O)c5ccc(N6CCCC6)cc5)CC4)nc3)CC2)cc1` [Compound 442, N-((cis)-4-(4-cyanophenoxy)cyclohexyl)-6-(4-(4-(pyrrolidin-1-yl)benzoyl)piperidine-1-carbonyl)nicotinamide], the pEC50 was above 6.30.

Compound `CS(=O)(=O)c1ccc(OC2CCN(C(=O)c3ccc(C(=O)NC4CCN(Cc5ccc(N6CCCC6)cc5)CC4)cn3)CC2)cc1` [Compound 230, 6-(4-(4-(methylsulfonyl)phenoxy)piperidine-1-carbonyl)-N-(1-(4-(pyrrolidin-1-yl)benzyl)piperidin-4-yl)nicotinamide] had a pEC50 of 6.00 to 6.30.
